From ChEMBL document CHEMBL1201862, “PubChem BioAssay data set” (2004)
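Growth conditions: 96-well plates. Treatment: test compound, 48 hours, 5 concentrations. Analysis: linear interpolation between bracketing concentrations; unreached endpoints set to highest concentration. At the GI50, growth is halved.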 Active and inactive are the calls of the source. Rule as the data show it: active = GI50 up to about 1.1 µM and inactive = higher.

Columns and labels:
Test in all cases: inhibition of tumour cell growth, NCI panel, 48 h
EKVX = test system: EKVX
SR = test system: SR
OVCAR-8 = test system: OVCAR-8
NCI-H522 = test system: NCI-H522
TK-10 = test system: TK-10
Hs-578T = test system: Hs-578T
COLO 205 = test system: COLO 205
OVCAR-5 = test system: OVCAR-5
HCT-116 = test system: HCT-116
UACC-62 = test system: UACC-62
SF-295 = test system: SF-295
RXF 393 = test system: RXF 393
NCI-H460 = test system: NCI-H460
NCI-H226 = test system: NCI-H226
A498 = test system: A498
KM12 = test system: KM12
BT-549 = test system: BT-549
M14 = test system: M14
ACHN = test system: ACHN
LOX IMVI = test system: LOX IMVI

Measured: GI50

C[N+](C)(C)CC1CCCc2ccccc2C1=O (stereo not drawn)
inactive: EKVX 6.46 µM | SR 1.64 µM | OVCAR-8 8.28 µM | NCI-H522 1.49 µM | TK-10 21 µM | Hs-578T 37.8 µM | COLO 205 22 µM | OVCAR-5 13.3 µM | HCT-116 1.87 µM | UACC-62 12.2 µM | SF-295 > 40.5 µM | RXF 393 6.28 µM | NCI-H460 22.1 µM | NCI-H226 21.9 µM | A498 14 µM | KM12 9.86 µM | BT-549 19.1 µM | M14 4.52 µM | ACHN 5.02 µM

CC(NC(=O)OC(C)(C)C)C(=O)NC(Cc1ccccc1)C(=O)NCC(=O)Oc1c(Cl)c(Cl)c(Cl)c(Cl)c1Cl (stereo not drawn)
inactive: EKVX 17.8 µM | SR 25 µM | OVCAR-8 19.6 µM | TK-10 27 µM | Hs-578T 37.5 µM | COLO 205 29.7 µM | OVCAR-5 19 µM | HCT-116 19.6 µM | UACC-62 22.3 µM | RXF 393 17.2 µM | NCI-H460 25.6 µM | NCI-H226 17.7 µM | A498 21.2 µM | KM12 25 µM | BT-549 23.5 µM | M14 26.2 µM | ACHN 25 µM

COC1=CC2=NCCc3n[nH]c(c32)C1=O
inactive: EKVX 16.9 µM | SR 13.4 µM | OVCAR-8 15.2 µM | NCI-H522 3.51 µM | TK-10 22.1 µM | Hs-578T 29.8 µM | COLO 205 17.7 µM | OVCAR-5 18.5 µM | HCT-116 13.7 µM | UACC-62 14 µM | SF-295 28.1 µM | NCI-H460 27 µM | LOX IMVI 2.35 µM | A498 23.5 µM | KM12 28.1 µM | BT-549 16.9 µM | M14 15 µM | ACHN 19.2 µM

Cc1ccc(N2C3=C(CC4=C2CC(C)(C)CC4=O)C(=O)CC(C)(C)C3)cc1
inactive: EKVX > 100 µM | SR > 100 µM | OVCAR-8 > 100 µM | TK-10 > 100 µM | Hs-578T 20.6 µM | COLO 205 > 100 µM | OVCAR-5 > 100 µM | HCT-116 > 100 µM | UACC-62 > 100 µM | SF-295 > 100 µM | RXF 393 > 100 µM | NCI-H460 > 100 µM | NCI-H226 > 100 µM | LOX IMVI > 100 µM | A498 > 100 µM | KM12 > 100 µM | BT-549 > 100 µM | M14 > 100 µM | ACHN > 100 µM

COC(=O)C1=C(C(=O)OC)SC(=C2SC3=C(SC(=C4SCCS4)S3)S2)S1
inactive: EKVX > 100 µM | SR > 100 µM | OVCAR-8 > 100 µM | NCI-H522 > 100 µM | TK-10 > 100 µM | Hs-578T 86.5 µM | COLO 205 > 100 µM | OVCAR-5 > 100 µM | HCT-116 > 100 µM | UACC-62 > 100 µM | SF-295 > 100 µM | RXF 393 > 100 µM | NCI-H226 > 100 µM | LOX IMVI > 100 µM | A498 > 100 µM | KM12 > 100 µM | BT-549 > 100 µM | M14 > 100 µM | ACHN > 100 µM

CCOC1CCN(C(=O)c2ccccc2)O1 (stereo not drawn)
inactive: EKVX > 10 µM | SR > 10 µM | OVCAR-8 > 10 µM | NCI-H522 > 10 µM | TK-10 > 10 µM | Hs-578T > 10 µM | COLO 205 > 10 µM | OVCAR-5 > 10 µM | HCT-116 > 10 µM | SF-295 > 10 µM | RXF 393 > 10 µM | NCI-H460 > 10 µM | NCI-H226 > 10 µM | LOX IMVI > 10 µM | BT-549 > 10 µM | M14 > 10 µM | ACHN > 10 µM

Cn1nc2ccc(Nc3cc(=O)[nH]c4ccc5nn(C)nc5c34)cc2n1
inactive: EKVX > 100 µM | SR 53.2 µM | OVCAR-8 > 100 µM | NCI-H522 65.6 µM | TK-10 > 100 µM | Hs-578T > 100 µM | COLO 205 > 100 µM | OVCAR-5 > 100 µM | HCT-116 > 100 µM | UACC-62 > 100 µM | SF-295 > 100 µM | RXF 393 > 100 µM | NCI-H460 > 100 µM | NCI-H226 > 100 µM | A498 > 100 µM | KM12 > 100 µM | BT-549 > 100 µM | M14 > 100 µM | ACHN > 100 µM
